From patent publication US20230142606A1, “PESTICIDALLY ACTIVE FUSED BICYCLIC HETEROAROMATIC AMINO COMPOUNDS” (SYNGENTA CROP PROTECTION AG, priority 2020, published 2023)

Legend:
Type in all cases: in vivo
[1] = tested on: Diabrotica Balteata (Corn Root Worm); experiment: Example B1: Diabrotica balteata (corn root worm), maize sprouts sprayed, L2 larvae; settings: 96 h, application rate of 200 ppm, 4 days after infestation, in comparison to untreated samples, read-out: effect in at least one of the two categories (mortality or growth inhibition)
Experimental: Example B1: Diabrotica Balteata (Corn Root Worm)
Maize sprouts placed onto an agar layer in 24-well microtiter plates were treated with aqueous test solutions prepared from 10′000 ppm DMSO stock solutions by spraying. After drying, the plates were infested with L2 larvae (6 to 10 per well). The samples were assessed for mortality and growth inhibition in comparison to untreated samples 4 days after infestation.
The following compounds gave an effect of at least 80% in at least one of the two categories (mortality or growth inhibition) at an application rate of 200 ppm: […]

[2] = tested on: Chilo suppressalis (Striped Rice Stemborer); experiment: Example B3: Chilo suppressalis (striped rice stemborer), artificial diet, L2 larvae; settings: 144 h, application rate of 200 ppm, pipetting, 6 days after infestation, in comparison to untreated samples, read-out: control (at least one of mortality, anti-feedant effect, growth inhibition)
Experimental: Example B3: Chilo suppressalis (Striped Rice Stemborer)
24-well microtiter plates with artificial diet were treated with aqueous test solutions prepared from 10′000 ppm DMSO stock solutions by pipetting. After drying, the plates were infested with L2 larvae (6-8 per well). The samples were assessed for mortality, anti-feeding effect, and growth inhibition in comparison to untreated samples 6 days after infestation. Control of Chilo suppressalis by a test sample is given when at least one of the categories mortality, anti-feedant effect, and growth inhibition is higher than the untreated sample.

[3] = tested on: Plutella xylostella (Diamond Back Moth); experiment: Example B4: Plutella xylostella (diamond back moth), 24-well artificial diet, eggs; settings: 192 h, application rate of 200 ppm, pipetting, 8 days after infestation, in comparison to untreated samples, read-out: effect in at least one of the two categories (mortality or growth inhibition)
Experimental: Example B4: Plutella xylostella (Diamond Back Moth)
24-well microtiter plates with artificial diet were treated with aqueous test solutions prepared from 10′000 ppm DMSO stock solutions by pipetting. After drying, Plutella eggs were pipetted through a plastic stencil onto a gel blotting paper and the plate was closed with it. The samples were assessed for mortality and growth inhibition in comparison to untreated samples 8 days after infestation. The following compounds gave an effect of at least 80% in at least one of the two categories (mortality or growth inhibition) at an application rate of 200 ppm: […]

[4] = tested on: Spodoptera littoralis (Egyptian Cotton Leaf Worm); experiment: Example B5: Spodoptera littoralis (Egyptian cotton leaf worm), cotton leaf discs sprayed, L1 larvae; settings: foliar, 72 h, application rate of 200 ppm, 3 days after infestation, in comparison to untreated samples, read-out: control (at least one of mortality, anti-feedant effect, growth inhibition)
Experimental: Example B5: Spodoptera littoralis (Egyptian Cotton Leaf Worm)
Cotton leaf discs were placed onto agar in 24-well microtiter plates and sprayed with aqueous test solutions prepared from 10′000 ppm DMSO stock solutions. After drying the leaf discs were infested with five L1 larvae. The samples were assessed for mortality, anti-feeding effect, and growth inhibition in comparison to untreated samples 3 days after infestation. Control of Spodoptera littoralis by a test sample is given when at least one of the categories mortality, anti-feedant effect, and growth inhibition is higher than the untreated sample.

[5] = tested on: Plutella xylostella (Diamondback Moth); experiment: Example B7: Plutella xylostella (diamondback moth), 96-well artificial diet, eggs; settings: 216 h, application rate of 500 ppm, eggs (~30 per well), 9 days after infestation, read-out: control (samples assessed for mortality)
Experimental: Example B7: Plutella xylostella (Diamondback Moth)
96-well microtiter plates containing artificial diet were treated with aqueous test solutions, prepared from 10′000 ppm DMSO stock solutions, by a liquid handling robot. After drying, eggs (˜30 per well) were infested onto a netted lid which was suspended above the diet. The eggs hatch and L1 larvae move down to the diet. The samples were assessed for mortality 9 days after infestation.

C[C@@H](c1ncnn1-c1ccc(C#N)cn1)N(C)c1nnc2c(C(F)(F)F)cc(C(F)(F)F)cn12 [Compound P1, 6-[5-[(lS)-1-[[6.8-bis(trifluoromethyl)-[1,2,4]triazolo[4,3-a]pyridin-3-yl]-methyl-amino]ethyl]-1,2,4-triazol-1-yl]pyridine-3-carbonitrile]
≥ 80%: percent effect (mortality or growth inhibition) at 200 ppm [1] | percent control (mortality, anti-feedant effect or growth inhibition) at 200 ppm [2] | percent effect (mortality or growth inhibition) at 200 ppm [3]

C[C@H](Nc1nnc2c(C(F)(F)F)cc(C(F)(F)F)cn12)c1ncnn1-c1ccc(C#N)cn1 [Compound P2, 6-[5-[(1S)-1-[[6,8-bis(trifluoromethyl)-[1,2,4]triazolo[4,3-a]pyridin-3-yl]amino]ethyl]-1,2,4-triazol-1-yl]pyridine-3-carbonitrile]
≥ 80%: percent effect (mortality or growth inhibition) at 200 ppm [1] | percent control (mortality, anti-feedant effect or growth inhibition) at 200 ppm [2] | percent effect (mortality or growth inhibition) at 200 ppm [3] | percent control (mortality, anti-feedant effect or growth inhibition) at 200 ppm [4]

CC(Nc1nnc2c(C(F)(F)F)cc(C(F)(F)F)cn12)c1ncnn1-c1ccc(C#N)cn1 (stereo not shown) [Compound P3, 6-[5-[1-[[6,8-bis(trifluoromethyl)-[1,2,4]triazolo[4,3-a]pyridin-3-yl]amino]ethyl]-1,2,4-triazol-1-yl]pyridine-3-carbonitrile]
≥ 80%: percent effect (mortality or growth inhibition) at 200 ppm [1] | percent control (mortality, anti-feedant effect or growth inhibition) at 200 ppm [2] | percent effect (mortality or growth inhibition) at 200 ppm [3] | percent control (mortality, anti-feedant effect or growth inhibition) at 200 ppm [4]

CC(Nc1nnc2c(C(F)(F)F)cc(C(F)(F)F)cn12)c1ncnn1-c1ccc(Br)cn1 (stereo not shown) [Compound P4, N-[1-[2-(5-bromo-2-pyridyl)-1,2,4-triazol-3-yl]ethyl]-6,8-bis(trifluoromethyl)-[1,2,4]triazolo[4,3-a]pyridin-3-amine]
≥ 80%: percent effect (mortality or growth inhibition) at 200 ppm [1] | percent control (mortality, anti-feedant effect or growth inhibition) at 200 ppm [2] | percent effect (mortality or growth inhibition) at 200 ppm [3] | percent control (mortality, anti-feedant effect or growth inhibition) at 200 ppm [4]

CC(Nc1nnc2c(C(F)(F)F)cc(Br)cn12)c1ncnn1-c1ccc(Br)cn1 (stereo not shown) [Compound P5, 6-bromo-N-[1-[2-(5-bromo-2-pyridyl)-1,2,4-triazol-3-yl]ethyl]-8-(trifluoromethyl)-[1,2,4]triazolo[4,3-a]pyridin-3-amine]
≥ 80%: percent effect (mortality or growth inhibition) at 200 ppm [1] | percent control (mortality, anti-feedant effect or growth inhibition) at 200 ppm [2] | percent effect (mortality or growth inhibition) at 200 ppm [3]

CC(Nc1nnc2c(C(F)(F)F)cc(Br)cn12)c1ncnn1-c1ccc(C#N)cn1 (stereo not shown) [Compound P6, 6-[5-[1-[[6-bromo-8-(trifluoromethyl)-[1,2,4]triazolo[4,3-a]pyridin-3-yl]amino]ethyl]-1,2,4-triazol-1-yl]pyridine-3-carbonitrile]
≥ 80%: percent control (mortality, anti-feedant effect or growth inhibition) at 200 ppm [2] | percent effect (mortality or growth inhibition) at 200 ppm [3] | percent control (mortality, anti-feedant effect or growth inhibition) at 200 ppm [4]

CC(Nc1nnc2c(C(F)(F)F)cc(Br)cn12)c1ncnn1-c1ncccn1 (stereo not shown) [Compound P7, 6-bromo-N-[1-(2-pyrimidin-2-yl-1,2,4-triazol-3-yl)ethyl]-8-(trifluoromethyl)-[1,2,4]triazolo[4,3-a]pyndin-3-amine]
≥ 80%: percent control (mortality, anti-feedant effect or growth inhibition) at 200 ppm [2]

CC(Nc1nnc2c(Cl)cc(C(F)(F)F)cn12)c1ncnn1-c1ccc(C#N)cn1 (stereo not shown) [Compound P8, 6-[5-[1-[[8-chloro-6-(trifluoromethyl)-[1,2,4]triazolo[4,3-a]pyridin-3-yl]amino]ethyl]-1,2,4-triazol-1-yl]pyridine-3-carbonitrile]
≥ 80%: percent effect (mortality or growth inhibition) at 200 ppm [1] | percent control (mortality, anti-feedant effect or growth inhibition) at 200 ppm [2] | percent effect (mortality or growth inhibition) at 200 ppm [3] | percent control (mortality, anti-feedant effect or growth inhibition) at 200 ppm [4]

CC(Nc1nnc2c(Cl)cc(C(F)(F)F)cn12)c1ncnn1-c1ncccn1 (stereo not shown) [Compound P9, 8-chloro-N-[1-(2-pyrimidin-2-yl-1,2,4-triazol-3-yl)ethyl]-6-(trifluoromethyl)-[1,2,4]triazolo[4,3-a]pyridin-3-amine]
≥ 80%: percent control (mortality, anti-feedant effect or growth inhibition) at 200 ppm [2] | mortality at 500 ppm [5]
